Assay results: patent publication US9844585B2, “Convection enhanced delivery apparatus, method, and application” (YALE UNIVERSITY, priority 2007, dated 2017)
“Also recorded” adds a separate entry of the source.

Key:
rat brain = conditions: hyperosmolar mannitol co-infusion; cited from earlier work
[1] = co-infused with 20% mannitol; cited from earlier work
[2] = tested on: striatum of the normal rat brain; assay: In vivo nanoparticle infusions by CED with enzymatic or hyperosmolar treatment
hyaluronan (HA) = assay: Histochemical assessment of hyaluronan degradation (HABP staining); format: in vivo, rat
Procedure: Degradation of HA was determined by staining with hyaluronic acid binding protein (HABP) following 1 μL infusions of 1000 U/mL hyaluronidase into the striatum following the same surgical procedure outlined above. Following degradation times of 30 min, 6, 12, and 24 hr brains were harvested and post-fixed in 4% paraformaldehyde in PBS at 4° C. for 4 days. The tissue was cryo-protected in 30% sucrose for 3 days, frozen at −70° C., and sectioned into 50 μm slices. Tissue slices were immersed in biotinylated HABP ([…], Calbiochem 385911) in PBS and left overnight on an orbital shaker. Slides were then immersed Alexa 555-Streptavidin conjugate (2 mg/mL, Invitrogen S21281) for two hours. Following several washing steps in PBS, stained slices were mounted with ProLong Gold Antifade media (Invitrogen P36930) and covered. Fluorescent images were captured using the same set-up described for nanoparticle imaging.

[3] = in 0.3% agarose; cited from earlier work
xenografted tumors = conditions: following collagenase treatment of xenografted tumors; cited from earlier work

Molecule: OC[C@@H](O)[C@@H](O)[C@H](O)[C@H](O)CO [Mannitol, mannitol]
- increase in the distribution volume of 40 nm liposomes (rat brain): 50%
- distribution volume of 2 kDa dextran [1]: unchanged
- entrainment of nanoparticles in perivascular spaces / branched distribution indicative of perivascular transport ([2]; co-infusion of mannitol with nanoparticles): attenuated; also recorded: not observed
- increase in nanoparticle distribution volume ([2]; co-infusion with 25% mannitol, untreated tissue vs untreated tissue without mannitol): 133%
- increase in nanoparticle distribution volume ([2]; mannitol co-infusion into enzyme-treated (24 hr hyaluronidase) tissue vs enzyme-treated tissue): 23%

Molecule: Hyaluronidase
- degradation of HA by HABP staining (hyaluronan (HA); 30 min and 6 hr after 1 μL of 1000 U/mL): some evidence of degradation
- degradation of HA by HABP staining (hyaluronan (HA); 12 hr and 24 hr after 1 μL of 1000 U/mL): widespread degradation of HA
- degradation of HA by HABP staining (hyaluronan (HA); 24 hr incubation): most complete digestion of HA
- effect on nanoparticle distribution volume ([2]; 30 min digestion with hyaluronidase): no measurable change; also recorded: no measurable effect
- increase in nanoparticle distribution volume ([2]; 24 hr digestion with hyaluronidase vs normal tissue): 70%

Molecule: albumin
- diffusivity D [3]: 8.3×10^−7 cm^2/s

Molecule: collagenase
- increase in the diffusivity of IgG (xenografted tumors): 100%
